Measured values taken from patent publication US20240115554A1, “METHODS FOR TREATING OBSTRUCTIVE HYPERTROPHIC CARDIOMYOPATHY” (Cytokinetics, Incorporated, priority 2022, published 2024).
“Also recorded” adds a separate entry of the source.

Tests used:
[1] = system: patients with symptomatic obstructive HCM (oHCM); assay: Phase 2 trial: cardiac biomarkers (NT-proBNP, hs-troponin); assay type: in vivo, human
Description: Echocardiograms obtained every 2 weeks and 2 weeks after the last dose were analyzed for several key structural and physiologic metrics and N-terminal prohormone of brain natriuretic peptide (NT-proBNP). Secondary results from the clinical study included data from Cohort 3 (n=13). […] Overall, treatment duration for each patient in the study was 10 weeks with an echocardiogram conducted 2 weeks after the last dose. Efficacy endpoints included resting and provoked LVOT gradients, NYHA class, and NT-proBNP.

[2] = system: patients with symptomatic obstructive HCM (oHCM); assay: Phase 2 trial: safety and tolerability
Description: Seventeen investigative sites in North America and Europe screened for patients to enroll in Cohorts 1 and 2.
The first two cohorts (Cohort 1 and Cohort 2) excluded patients receiving disopyramide. Cohort 3 included patients receiving disopyramide. […] Overall, the treatment duration was 10 weeks with a 4-week follow-up period after the last dose.

[3] = Phase 1 plasma aficamten pharmacokinetics (SAD, MAD, CYP2D6-PM, food-effect cohorts); assay type: in vivo, human; settings: for CL/F: mean ± SD
Description: CYP2D6 poor metabolizer cohort.
CYP2D6 genotypes were determined at screening for all study participants; those identified as CYP2D6-PMs were excluded from the SAD and MAD cohorts but were invited to participate in the CYP2D6-PM cohort. The first individual in the CYP2D6-PM cohort was dosed after the SAD 25-mg cohort (FIG. 2). […] Nine participants were randomized (7:2) with a sentinel dosing group consisting of the first 2 participants treated.
Food-effect cohort. […] Participants were randomized in a 1:1 ratio to 1 of 2 sequences: fasted/fed or fed/fasted.
Pharmacokinetic analyses. For all study groups, blood samples for PK assessment were obtained pre-dose, up to 12 times daily on day 1, and then at regular intervals throughout the study. Blood samples were collected according to the following schedule: SAD Cohorts: Day 1: pre-dose and 0.25, 0.5, 1, 1.5, 2, 2.5, 3, 4, 6, 8, 12, 16, 24, 36, 48, 72, 96, and 216 h post dose. […] CYPD6-PM Cohort: Day 1: pre-dose and 0.25, 0.5, 1, 1.5, 2, 2.5, 3, 4, 6, 8, 12, 16, 24, 36, 48, 72, 96, 216, 312, and 552 h post dose. Food-Effect Cohort: Day 1: pre-dose and 0.25, 0.5, 1, 1.5, 2, 2.5, 3, 4, 6, 8, 12, 16, 24, 36, 48, 72, 96, 144, and 216 h post dose. Standard non-compartmental methods were used to calculate PK parameters using Phoenix® WinNonlin® Version 7.0; actual sample collection times were utilized.
For the MAD cohort, the parameters were AUC24 and Cmax on day 1, plus AUC to the […] (AUCtau) and Cmax on day 14 or 17. The statistical linear relationship between the ln-transformed PK parameters and the ln-transformed dose was verified by including the quadratic (ln Dose)^2 and cubic (ln Dose)^3 effects. […] The dose-proportionality analysis was performed using SAS® PROC MIXED.
An analysis of variance (ANOVA) model was conducted separately for each dose level; day was included as the fixed effect. Helmert contrasts were developed such that each time-point was compared with the mean of the subsequent time-points.

[4] = system: patients with symptomatic oHCM; assay: Open-label extension: Kansas City Cardiomyopathy Questionnaire (KCCQ); assay type: in vivo, human
Description: Change in KCCQ scores from baseline, including OSS=overall summary score, CSS=clinical summary score, TSS=total symptom score, PLS=physical limitation score, SLS=social limitation score, QoL=quality of life, were determined. Patients were categorized with worsened (≤−5 points), unchanged (−5 to <5 points), small improvement (5 to <10 points), moderate to large improvement (10 to <20 points), and large to very large improvement (≥20 points) relative to baseline.

[5] = system: patients with symptomatic oHCM; assay: Open-label extension: safety and tolerability; assay type: in vivo, human; settings: for Patients with TEAE Leading to Dose Reduction / Patients with TEAE Leading to Drug Interruption / Patients with at Least One Related TEAE / Patients with at Least One Severe TEAE / Patients with at Least One TEAE / Patients with at Least One TESAE: open-label extension, preliminary safety
Description: An open-label extension clinical trial of aficamten in patients with symptomatic oHCM was initiated.
An open-label extension clinical trial of aficamten in patients with symptomatic oHCM was initiated. The treatment duration is anticipated to be multiple years.
Safety and tolerability are evaluated by (i) patient incidence of adverse events, (ii) patient incidence of serious adverse events, (iii) patient incidence of LVEF <50%.

[6] = Cohort 1, 21 randomized 2:1 aficamten (5, 10, 15 mg once daily) or placebo, 10 weeks
[7] = Cohort 2, 20 randomized 2:1 aficamten (10, 20, 30 mg once daily) or placebo, 10 weeks
[8] = Cohort 3, 13 patients, aficamten (5, 10, 15 mg once daily) on top of disopyramide, 10 weeks
[9] = Total, Cohorts 1-3, 54 patients

In the case of `CCc1nc(-c2ccc3c(c2)CC[C@H]3NC(=O)c2cnn(C)c2)no1` [aficamten, (R)—N-(5-(5-ethyl-1,2,4-oxadiazol-3-yl)-2,3-dihydro-1H-inden-1-yl)-1-methyl-1H-pyrazole-4-carboxamide], the “patients with at least some reduction in NT-proBNP levels” value ([1]; 25 out of the 27 patients on aficamten) is reported as 93%, the “proportional reduction in NT-proBNP levels compared to placebo” value ([1]; week 10) is reported as 62% and the “patients with LVEF <50%” value ([2]; Cohort 1) is reported as “No patients”. For the same compound, the “Patients with TEAEs leading to drug interruption or termination” value (“Patients with TEAEs leading” below) [2, 6] was 0 N, the “Patients with fatal TEAEs” value [2, 6] was 0 N and the “TEAE of LVEF <50% (Core Lab)” value [2, 6] was 0 N. The “patients with transient LVEF reduction to <50% requiring down titration” value ([2]; Cohort 2, 20 mg) was “one patient”, the “Patients with TEAEs leading” value [2, 7] was 0 N and the “Patients with TESAEs” value [2, 7] was 0 N. For the same compound, the “Patients with fatal TEAEs” value [2, 7] was 0 N, the “changes in QTc interval or vital signs” value ([2]; Cohort 3) was “no significant changes in QTc interval, or vital signs” and the “moderate adverse events recorded” value ([2]; Cohort 3) was “six”. For the same compound, the “patients with LVEF <50%” value ([2]; Cohort 3) was “No patients experienced LVEF <50%”, the “serious adverse events, dose interruptions, discontinuations” value ([2]; Cohort 3) was “no serious adverse events attributed to treatment; also recorded: no dose interruptions, treatment discontinuations, or serious adverse events” and the “Patients with TEAEs leading” value [2, 8] was 0 N. The “Patients with TESAEs” value [2, 8] was 0 N, the “Patients with fatal TEAEs” value [2, 8] was 0 N and the “TEAE of LVEF <50% (Core Lab)” value [2, 8] was 0 N. The “adverse event of asymptomatic atrial fibrillation” value ([2]; Cohort 3, patient with known prior history) was “One”, the “interruptions or discontinuations of treatment” value ([2]; Cohorts 1 and 2) was “no treatment interruptions; also recorded: No interruptions or discontinuations” and the “new cases of atrial fibrillation” value ([2]; Cohorts 1 and 2) was “No new cases of atrial fibrillation”. The “severity of adverse events” value ([2]; Cohorts 1 and 2) was “mild or moderate”, the “treatment related serious adverse events” value ([2]; Cohorts 1 and 2) was “No serious adverse events were attributed to aficamten; also recorded: no treatment related serious adverse events” and the “reversibility of LVEF effect after end of treatment” value ([2]; Phase 2 cohorts) was “returned towards baseline within two weeks after the end of treatment; also recorded: returned to baseline after the 2-week washout”. The “Patients with TEAEs leading” value [2, 9] was 0 N, the “Patients with fatal TEAEs” value [2, 9] was 0 N and the “impact of food and CYP2D6-PM phenotype on pharmacokinetics” value ([3]; 10 mg single dose) was “Neither food nor CYP2D6-PM phenotype had a clinically meaningful impact on pharmacokinetics”. The “steady state achieved by the end of day” value ([3]; 5-mg and 7.5-mg doses once daily) was 12 days, the “steady state achieved by the end of day” value ([3]; 10-mg dose once daily) was 10 days and the CL/F ([3]; CYP2D6 Poor Metabolizers, 10 mg single dose) was 3.6 ± 1.4 L/h. For the same compound, the “maximum time to maximum observed concentration across all participants” value ([3]; SAD cohorts) was 4.0 h, the “increase of Cmax when taken with food” value ([3]; food-effect cohort, 10 mg) was “approximately 30%” and the CL/F ([3]; food-effect cohort, 10 mg, Fasted (n = 4)) was 2.8 ± 0.6 L/h. For the same compound, the CL/F ([3]; food-effect cohort, 10 mg, Fed (n = 7)) was 3.1 ± 0.9 L/h, the “time within which steady state is achieved” value ([3]; once-daily dosing) was at most 2 weeks and the CL/F ([3]; single oral dose 3 mg) was 4.2 ± 3.1 L/h. The CL/F ([3]; single oral dose 10 mg) was 3.0 ± 0.7 L/h, the CL/F ([3]; single oral dose 25 mg) was 3.6 ± 0.5 L/h and the CL/F ([3]; single oral dose 40 mg) was 3.4 ± 0.6 L/h. For the same compound, the CL/F ([3]; single oral dose 50 mg) was 3.8 ± 1.1 L/h, the “dose proportionality of plasma concentrations / exposure” value ([3]; single oral doses 1 mg to 50 mg) was “increased in a dose-proportional manner; also recorded: linear kinetics” and the “participants with clinically-important improvement (5 points on the KCCQ Overall Summary Score)” value ([4]; Week 12) was 72.7%. The “participants with very large clinical improvements in KCCQ” value ([4]; Week 12) was 36.4%, the “participants with clinically-important improvement (5 points on the KCCQ Overall Summary Score)” value ([4]; Week 24) was 72.0% and the “participants with very large clinical improvements in KCCQ” value ([4]; Week 24) was 40.0%. For the same compound, the “improvement in KCCQ domain scores” value ([4]; up to 6 months) was “marked and sustained improvement in all KCCQ domain scores”, the “safety events deemed related to aficamten therapy by investigators” value ([5]; BTR/W analysis) was “no safety events deemed related to aficamten therapy” and the “LVEF during recurrent alcohol induced atrial fibrillation” value ([5]; one patient on 15 mg) was 47%. For the same compound, the “events of LVEF <50% attributed to aficamten” value ([5]; open label extension) was “no events of LVEF <50% attributed to aficamten; also recorded: no patients experienced aficamten related reduction in LVEF <50%; also recorded: no instances of systolic dysfunction (LVEF <50%) attributed to aficamten”, the tolerability ([5]; open label extension, Example 3a) was “well tolerated” and the “Patients with TEAE Leading to Dose Reduction” value ([5]; N = 38) was “(5%)”. For the same compound, the “Patients with TEAE Leading to Drug Interruption” value ([5]; N = 38) was “(3%)”, the “Patients with at Least One Related TEAE” value ([5]; N = 38) was “(21%)” and the “Patients with at Least One Severe TEAE” value ([5]; N = 38) was “(3%)”. For the same compound, the “Patients with at Least One TEAE” value ([5]; N = 38) was “(74%)”, the “Patients with at Least One TESAE” value ([5]; N = 38) was “(5%)” and the “Patients with TEAE Leading to Dose Reduction” value ([5]; N = 38, number of patients) was 2. For the same compound, the “Patients with TEAE Leading to Drug Interruption” value ([5]; N = 38, number of patients) was 1, the “Patients with at Least One Related TEAE” value ([5]; N = 38, number of patients) was 8 and the “Patients with at Least One Severe TEAE” value ([5]; N = 38, number of patients) was 1. The “Patients with at Least One TEAE” value ([5]; N = 38, number of patients) was 28 and the “Patients with at Least One TESAE” value ([5]; N = 38, number of patients) was 2.
